Drawing on patent publication US5120752A, “Cyclopropyl derivative lipoxygenase inhibitors” (Abbott Laboratories, priority 1990, dated 1992), this text covers IC50 and inhibition in vivo for six compounds.

In assay [1] the test system is LTB4 biosynthesis in human whole blood. In words: Inhibition of calcium ionophore-induced LTB4 biosynthesis in human whole blood. Type of assay: cell-based. To be noted: A23187 50 μM, 15 min preincubation, read-out: Inhibition of Leukotriene Biosynthesis IC50. As for the experimental part:
Inhibition of leukotriene biosynthesis was evaluated in an assay, involving calcium ionophore-induced LTB4 biosynthesis expressed by human whole blood. Heparinized (20 U/mL) human blood (0.3 mL) was preincubated with test compound or vehicle for 15 min. at 37° C. Eicosanoid biosynthesis was initiated by adding calcium ionophore (A23187) in DMSO to a final concentration of 50 μM and terminated after 30 min. by rapid cooling of the blood in an ice bath and centrifuging at 3° C. for 10 min at 2500×g. The plasma was mixed with 4 volumes of methanol and allowed to stand for at least 30 min. at 3° C. prior to centrifuging at 1800×g for 10 min. The level of LTB4 in aliquots of the methanol-plasma extract was analyzed by radio-immunoassay or enyme-immunoassay techniques.

A further assay concerns leukotriene biosynthesis. The experiment in a line: Inhibition of leukotriene biosynthesis in vivo after oral administration, rat peritoneal anaphylaxis model. The note with it: 100 μmol/kg oral (gavage), 1 h before antigen challenge, read-out: % Inhibition of Leukotrienes at 100 μmol/kg oral dose. How it is done:
Inhibition of the biosynthesis of leukotrienes in vivo after oral administration of representative test compounds of this invention was determined using a rat peritoneal anaphylaxis model in a similar manner as that described by Young and coworkers (Young, P. R.; Dyer, R. D.; Carter, G. W. Fed. Proc., Fed. Am. Soc. Exp. Biol. 1985, 44, 1185). In this model rats were injected intraperitoneally (ip) with rabbit antibody to bovine serum albumin (BSA) and three hours later injected ip with BSA to induce an antgen-antibody response. Rats were sacrificed 15 minutes after this challenge and the peritoneal fluids were collected and analyzed for leukotriene levels. Test compounds were administered by gavage one hour prior to the antigen challenge. Percent inhibition values were determined by comparing the treatment group to the mean of the control group. The results of this assay, for representative compounds of the present invention, at an oral dose level of […] are presented in Table 2, and at an oral dose of […] in Table 3.

As a reminder, the IC50 is the concentration at which inhibition is half-maximal.

Consider `NC(=O)N(O)C[C@@H]1C[C@H]1c1ccoc1` (relative stereo) [Example 193, N-(1-trans-(2-(3-furanyl)cyclopropyl)methyl)-N-hydroxyurea], for which the IC50 in assay [1] is 230 nM. The inhibition in vivo at 100 µmol/kg in the assay on leukotriene biosynthesis worked out at 93%.
In the same order, the values of `NC(=O)N(O)C[C@@H]1C[C@H]1c1cccs1` (relative stereo) [Example 194, N-(1-trans-(2-(2-thienyl)cyclopropyl)methyl)-N-hydroxyurea] are 370 nM and 97%.
The matching figures for `NC(=O)N(O)C[C@@H]1C[C@H]1c1ccco1` (relative stereo) [Example 198, N-(1-trans-(2-(2-furanyl)cyclopropyl)methyl)-N-hydroxyurea]: 970 nM and 90%.
The matching figures for `Cc1ccc(Oc2cccc([C@@H]3C[C@H]3C(C)N(O)C(N)=O)c2)cc1` (stereo partly drawn) [Example 180, N-(1-trans-(2-(3-(4-methylphenoxy)phenyl)cyclopropyl)ethyl)-N-hydroxyurea]: 690 nM and 85%.
Turning to `CC([C@@H]1C[C@H]1c1ccsc1)N(O)C(N)=O` (stereo partly drawn) [Example 189, N-(1-trans-(2-(3-thienyl)cyclopropyl)ethyl)-N-hydroxyurea], the 50% inhibitory concentration (IC50) in assay [1] was determined as 680 nM. For the same compound, the inhibition in vivo at 100 µmol/kg in the assay on leukotriene biosynthesis came to 73%.
The matching figures for `CC([C@@H]1C[C@H]1c1ccoc1)N(O)C(N)=O` (stereo partly drawn) [Example 192, N-(1-trans-(2-(3-furanyl)cyclopropyl)ethyl)-N-hydroxyurea]: 1200 nM and 71%.
